# Read-outs that look alike come from different tables or passages of the source. Marks after values point to notes of the source that are not given here.
# Experiments:
# hippocampal slices [1] = experiment: Basal GABA and glutamate outflow in hippocampal slices; type: cell-based, rat; details: 10 and 100 μM
# Method: (§1) Based on previous results obtained for GET 73, which influences the aminoacidergic neurotransmission in the rat hippocampus, probably through a complex modulation of the metabotropic glutamate receptors subtype 5 (mGluR5) (Beggiato et al., 2013; Ferraro et al., 2011, 2013) the positional isomer ACGET61 was evaluated in vitro in hippocampal slices, by measuring GABA and glutamate levels in different experimental conditions.
# mGluR5 [2] = biological target: T1, mGluR5 (Rattus norvegicus, UniProt P31424); experiment: Increase in K+-evoked glutamate outflow induced by the mGluR5 receptor agonist CHPG in hippocampal slices; type: cell-based; details: CHPG 100 μM
# T1 construct: from tissue; host or cells: hippocampal slices
# Method: as §1
# The interaction of ACGET61 with the mGluR5 agonist CHPG was explored in KCl stimulated hippocampal slices. […] Specifically, FIG. 5—KCl stimulated Hippocampal slices—K^+ evoked glutamate outflow. The effect of ACGET61 300 pM on the increase in glutamate outflow induced by CHPG 100 μM. ** p<0.01 vs Control; ^∘ p<0.05 vs ACGET61+CHPG.
# [3] = system: Sardinian alcohol preferring (sP) rats; experiment: Operant self-administration of alcohol, progressive ratio / break point (PR/BP); type: in vivo, rat; details: for Effective Doses mg/kg: PR/BP model, sP rats
# Text: (§2) In these procedures sP rats were trained to self-administer alcohol or sucrose by pressing a lever, and the amount of work (lever pressing) requested to obtain alcohol, varied according with the aim of the single schedule of reinforcement, Fixed ratio (FR) or Progressive ratio (PR).
# (§3) Sucrose solution (3% w/v) was systematically employed in these experiments as alternative reinforcer, in order to assess if test compounds exert a selective effect on the alcohol solution (15% v/v) self-administration.
# (§4) In the FR the rat obtain alcohol or sucrose in response to four consecutive lever pressing (FR4), while in the PR the number of lever pressing necessary to obtain alcohol or sucrose increased progressively till the rat stop pressing the lever (Break point; BP). Each FR4 or PR/BP session lasted 30 minutes.
# [4] = system: primary cultures of rat hippocampal neurons; type: cell-based; details: for Minimum effective concentration for neuroprotective effects: hippocampal neurons chronically exposed to ethanol, cell viability and ROS production
# Text: (§5) The neurotoxic effects of alcohol have been well documented, both in animals and humans, and the hippocampus represents a brain area particular sensitive to the detrimental effects of alcohol. Different preclinical models have been employed for studying the neurotoxic effects of alcohol. One of these models consists in exposing organotypic hippocampal cultures to alcohol, which exerts various effects, including a reduction in cell viability, and an increase in reactive oxygen species (ROS).
# (§6) Briefly, primary cultures of rat hippocampal neurons were chronically exposed to ethanol (75 mM; 4 days) and the neuroprotective effects of ACGET61 were assessed by evaluating cell viability (MTT assay), and reactive oxygen species production (rhodamine 123 fluorescence).
# [5] = system: Sardinian alcohol preferring (sP) rats; experiment: Operant self-administration of alcohol, fixed ratio FR4; type: in vivo, rat
# Text: as §2, §3, §4
# [6] = system: primary cultures of rat hippocampal neurons; type: cell-based
# Text: as §5, §6
# Ethanol exposure induced a significant increase in the ROS production (p<0.001), measured by the fluorescence emission of rhodamine 123.
# hippocampal slices [7] = experiment: K+-evoked GABA and glutamate outflow in KCl stimulated hippocampal slices; type: cell-based, rat
# Method: as §1
# Additional studies aimed at exploring the effect of ACGET61 (10 pM-10 μM) in KCl stimulated hippocampal slices were carried out.
# [8] = system: Sardinian alcohol preferring (sP) rats; experiment: Maintenance of alcohol intake, 2-bottle free choice regimen between alcohol (10% v/v) and water; type: in vivo, rat; details: acute oral administration
# Text: Anti-alcohol profile of ACGET61 in Sardinian alcohol preferring (sP) rats Sardinian alcohol preferring (sP) rats represents one of the few rat lines selectively bred worldwide for high ethanol preference and consumption (Colombo et al., 2006) and are utilized in multiple experimental procedures validated for the evaluation of different aspects of alcohol drinking. These experimental procedures include Maintenance of alcohol intake, and Operant self-administration of alcohol.
# In this procedure sP rats were exposed to a 2-bottle free choice regimen between alcohol (10% v/v) and water. Under this condition, the animals can choose between a bottle containing the alcohol solution and a bottle containing water, and voluntarily consume about 6 g/kg/day of alcohol, with a preference for alcohol of about 90%.
# mGluR5 [9] = biological target: T1, mGluR5; details: GET73, same model; cited from earlier work
# [10] = system: Sardinian alcohol preferring (sP) rats; details: 2-bottle free choice model; cited from earlier work
# [11] = cited from earlier work
# [12] = 0.01-10 μM, cultures not exposed to ethanol
# [13] = FR4 model, sP rats, GET 73 tested up to 50
# T1 sequence (P31424 21-1203): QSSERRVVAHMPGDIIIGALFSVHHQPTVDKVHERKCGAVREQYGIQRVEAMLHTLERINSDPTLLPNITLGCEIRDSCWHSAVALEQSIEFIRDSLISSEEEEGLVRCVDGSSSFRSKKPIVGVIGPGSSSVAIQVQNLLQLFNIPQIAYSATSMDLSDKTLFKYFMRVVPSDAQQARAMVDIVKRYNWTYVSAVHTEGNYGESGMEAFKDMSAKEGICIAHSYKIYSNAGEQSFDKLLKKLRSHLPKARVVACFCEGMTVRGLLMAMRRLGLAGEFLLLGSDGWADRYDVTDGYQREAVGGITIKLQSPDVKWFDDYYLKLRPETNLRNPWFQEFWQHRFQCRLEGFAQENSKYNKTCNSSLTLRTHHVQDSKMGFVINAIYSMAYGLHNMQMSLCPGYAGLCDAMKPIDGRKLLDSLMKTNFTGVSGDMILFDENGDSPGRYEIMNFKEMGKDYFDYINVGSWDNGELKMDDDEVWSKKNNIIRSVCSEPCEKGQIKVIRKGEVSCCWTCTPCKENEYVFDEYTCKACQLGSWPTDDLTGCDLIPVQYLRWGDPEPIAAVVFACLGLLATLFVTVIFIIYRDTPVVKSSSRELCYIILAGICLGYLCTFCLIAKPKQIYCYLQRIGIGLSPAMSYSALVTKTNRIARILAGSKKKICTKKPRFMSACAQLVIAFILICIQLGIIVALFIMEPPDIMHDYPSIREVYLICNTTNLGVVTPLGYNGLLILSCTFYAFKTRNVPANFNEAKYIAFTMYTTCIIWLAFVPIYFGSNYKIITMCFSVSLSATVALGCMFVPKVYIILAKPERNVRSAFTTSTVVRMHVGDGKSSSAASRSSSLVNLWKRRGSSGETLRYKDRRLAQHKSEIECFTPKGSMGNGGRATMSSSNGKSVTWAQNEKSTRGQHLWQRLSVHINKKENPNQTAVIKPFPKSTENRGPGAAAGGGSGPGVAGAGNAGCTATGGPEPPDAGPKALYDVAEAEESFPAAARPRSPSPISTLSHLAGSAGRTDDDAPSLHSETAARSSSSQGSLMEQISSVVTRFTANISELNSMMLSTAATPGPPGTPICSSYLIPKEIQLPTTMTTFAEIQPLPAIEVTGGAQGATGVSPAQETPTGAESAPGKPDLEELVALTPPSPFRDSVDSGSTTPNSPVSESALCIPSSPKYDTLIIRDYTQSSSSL
structure (smiles),measurement,setting,value
"COCCCC(=O)NCc1ccccc1C(F)(F)F [ACGET61, N-[(2-trifluoromethyl)benzyl]-4-methoxybutyramide]",Effect on basal release of GABA and glutamate,hippocampal slices [1],No effects
same,Effect on the increase in K+-evoked glutamate outflow exerted by CHPG,mGluR5 [2]; ACGET61 300 pM,"able to counteract, at least in part"
same,Concentration inhibiting CHPG-induced increase of glutamate in hippocampal slices,mGluR5 [2]; KCl stimulated slices,300 pM
same,Number of lever pressing and break point for alcohol,"[3]; 50 and 100 mg/kg, PR, 30 min session",reduced
same,Response for sucrose,"[3]; 50 and 100 mg/kg, PR, sucrose 3% w/v",able to reduce also the response for sucrose
same,Effective Doses mg/kg,[3]; for alcohol and sucrose,50-100 * mg/kg
same,"Cellular viability, compound by itself",[4]; [12],did not affect cellular viability
same,Cell viability in ethanol exposed cultures,"[4]; 0.1, 1, and 10 μM added 1 hour before and during ethanol 75 mM, 4 days, p<0.05 vs ethanol",prevented the ethanol-induced damage
same,Minimum effective concentration for neuroprotective effects,[4],0.1 µM
same,"Effect on FR4 operant self-administration of alcohol (lever responses, alcohol and sucrose intake)","[5]; 100 mg/kg, 30 min session, p<0.05 vs vehicle",selective reducing effect on the reinforcing properties of alcohol
same,Effective Doses,[5]; [13],100 mg/kg
same,"ROS production, compound by itself",[6]; [12],did not affect ROS production
same,ROS production in ethanol exposed cultures,"[6]; 0.1, 1, and 10 μM added 1 h before and during ethanol 75 mM, 4 days",prevented the ethanol-induced increase of ROS production
same,K+-evoked glutamate outflow,"hippocampal slices [7]; 100, 300, and 500 pM",modest non significant reduction
same,Effect on K+-evoked GABA and glutamate outflow,hippocampal slices [7]; concentrations between 10 nM and 10 μM,did not exert overt effects
same,K+-evoked GABA outflow,hippocampal slices [7]; highest concentration (10 μM),significant decrease
same,Duration of effect,"[8]; ACGET61, Maintenance model, sP rats",24 h
same,Effect on water and food intake,[8]; 25 to 100 mg/kg,without affecting water and food intake
"COCCCC(=O)NCc1ccc(C(F)(F)F)cc1 [GET 73, 4-methoxy-N-[[4-(trifluoromethyl)phenyl]methyl]-butanamide, reference compound]",Effect on PR operant self-administration of alcohol,"[3]; GET73, same model",did not demonstrate any effects
same,Sucrose intake,"[3]; PR, 50 mg/kg",significant reduction
same,Effective Doses mg/kg,[3]; limited to sucrose,50 # mg/kg
same,Minimum effective concentration for neuroprotective effects,[4],1 µM
same,Effective Doses mg/kg,[5]; [13],No effect
same,Effect in FR4 operant self-administration,"[5]; GET73, same model",did not demonstrate any effects
same,Concentration inhibiting CHPG-induced increase of glutamate in hippocampal slices,mGluR5 [9],500 nM
"O=C(O)CCCO [GHB, gamma-hydroxybutyric acid]",Alcohol intake of sP rats,[10],reduced
NCC(CC(=O)O)c1ccc(Cl)cc1 (stereo not shown) [baclofen],Alcohol intake of sP rats,[10],reduced
O=C1CC[C@@]2(O)[C@H]3Cc4ccc(O)c5c4[C@@]2(CCN3CC2CC2)[C@H]1O5 [naltrexone],Alcohol intake of sP rats,[10],reduced
O=C(O)CCCO [sodium oxybate],Time to peak plasma concentration,[11]; after oral administration,30 to 45 min
same,Bioavailability,[11]; in vivo,about 30%
same,Half-life,[11]; in vivo,about 30 minutes
